In patent publication US12728132B2, “Inhibitors of the peptidyl-prolyl cis/trans isomerase (PIN1), combinations and uses thereof” (DANA-FARBER CANCER INSTITUTE, INC., priority 2021, dated 2026):
Each block holds one molecule with its values, some of them ahead of it. *1 amine or outer side, *2 acyl side, *3 side chain or, on linkers, in order; H or OH if unused. Where a SMILES comes first, the peptide text is derived from it. Where no end group is shown, it is not given here. [ ]: non-standard residue; d: D form. The star is where a group is joined. Pro(13C,15N) = carbon and nitrogen isotope labeled proline, O=[13C]([13C@@H]1[13CH2][13CH2][13CH2][15N]1[*:1])[*:2]; pS = N[C@@H](COP(=O)(O)O)C(=O)O; Cbz = O=C(OCc1ccccc1)*

Experiments:
Pin1 in MDA-MB-231 cells = assay: Immunoblot of Pin1 inhibitor-induced Pin1 degradation with proteasome inhibitors; assay type: cell-based, human; conditions: MDA-MB-231, AApin 3 days; 10 μM MG132 or 1 μM bortezomib last 12 hrs
Description: For IB analysis, cells were lysed in RIPA buffer (Thermo) supplemented with protease inhibitors (Sigma) and phosphatase inhibitors (Sigma). Protein concentrations were measured using Protein Assay Dye Reagent (Bio-Rad) and a Beckman Coulter. Equal amounts of protein were resolved by SDS-PAGE and probed with indicated antibodies. For immunoprecipitation analysis, cells were lysed in IP lysis buffer (Thermo) and pre-cleared by Mouse IgG-Agarose (Sigma) for 1 hour at 4° C. and then incubated with anti-Flag M2-Agarose (Sigma) for 2 hours at 4° C. The agaroses were washed four times with IP lysis buffer and boiled in standard Laemmli-Buffer with 5% final concentration of β-mercaptoethanol before being resolved by SDS-PAGE and immunoblotted with indicated antibodies.
Exploration of the intrinsic upstream regulators that could affect Pin1 protein stability was then sought.

[1] = tested on: K14cre; p53^f/f; Brca1^f/f tumors; assay: Survival and tumor growth, Brca1-deficient immunocompetent TNBC mouse model; assay type: in vivo; conditions: mice bearing K14cre, n=6 per group
Source text: (§1) All animal experiments were approved by the IACUC of the Beth Israel Deaconess Medical Center. Maximum permitted the longest dimension of tumors was 20 mm. Pieces from breast tumors generated in K14cre; p53^f/f; Brca1^f/f or K14cre; p53^wt/f; Brca1^wt/f female mice were transplanted into the mammary pad of 6-week-old FVB female mice. For survival studies, treatments were started once the tumors reached 3-5 mm in diameter and continued until mice were symptomatic or tumors reached 20 mm in any direction, at which point mice were euthanized. For time point analysis, mice were sacrificed two weeks post-treatment initiation. Control and anti-PD-L1 antibody (clone 29E.2A3) treatments were conducted by intraperitoneal injection with a dosage of 200 μg per mouse every three days. sulfopin treatment was given by intraperitoneal injection with a dosage of 60 mg/kg (7 days/week), abemaciclib treatment was given by oral gavage with a dosage of 100 mg/kg (7 days/week), or drug combinations in which each compound was administered at the same dose and scheduled as a single agent. Tumor sizes were measured every three days by caliper after implantation and tumor volume was calculated by the modified ellipsoidal formula: tumor volume=½length×width^2. The investigators were not blinded to allocation during experiments and outcome assessment.

[2] = tested on: K14cre; p53^wt/f; Brca1^wt/f tumors; assay: Survival and tumor growth, Brca1-proficient immunocompetent TNBC mouse model; assay type: in vivo; conditions: mice bearing K14cre, n=10 per group
Source text: as §1

[3] = tested on: K14cre; Brca1^+/−; p53^−/−-TNBC; assay: Survival until mandatory euthanasia, syngeneic FVB/N TNBC model with or without anti-PD-L1; assay type: in vivo; conditions: syngeneic FVB/N mice, time to mandatory euthanasia (tumor size 2 cm)
Source text: All animal experiments were approved by the IACUC of the Beth Israel Deaconess Medical Center. Maximum permitted the longest dimension of tumors was 20 mm. Pieces from breast tumors generated in K14cre; p53^f/f; Brca1^f/f or K14cre; p53^wt/f; Brca1^wt/f female mice were transplanted into the mammary pad of 6-week-old FVB female mice. For survival studies, treatments were started once the tumors reached 3-5 mm in diameter and continued until mice were symptomatic or tumors reached 20 mm in any direction, at which point mice were euthanized. For time point analysis, mice were sacrificed two weeks post-treatment initiation. […] Tumor sizes were measured every three days by caliper after implantation and tumor volume was calculated by the modified ellipsoidal formula: tumor volume=½length×width^2. […]
A total of 86 FVB/N mice were grafted syngeneically with the K14cre; Brca1^+/−; p53″/tumors. […] Time to mandatory euthanasia (tumor size 2 cm) was recorded. […] Statistical significance was calculated using a two-sided log-rank test.

[4] = tested on: K14cre; p53^wt/f, Brca1^wt/f BT3 tumors; assay: Survival and tumor growth, FVB mice bearing BT3 tumors; assay type: in vivo; conditions: n=10 mice per group
Source text: as §1

TNBC = conditions: single agents; cited from earlier work
[5] = tested on: TNBC patient-derived xenograft (TM00096); assay: In vivo therapy for TNBC patient-derived xenografts (PDOX); design: species or system human tumor in BALB/c nude mice; conditions: Rb-proficient TNBC PDOX, nude mice
Description: All animal experiments were approved by the IACUC of the Beth Israel Deaconess Medical Center. Triple-negative BC patient-derived xenograft (TM00096) was purchased from Jackson Laboratories. Pieces from PDOX tumors were subcutaneously implanted into flank of 6-week-old BALB/c female nude mice. Tumor sizes were measured every three days by caliper after implantation and tumor volume was calculated by the modified ellipsoidal formula: tumor volume=½length×width^2. Treatments were started once the tumors reached 5 mm in diameter and continued until tumors reached 15 mm in any direction. […] Sulfopin treatment was given by intraperitoneal injection with a dosage of 40 mg/kg (dissolved solution: 5% DMSO in D5W, 7 days/week), palbociclib treatment was given by oral gavage with a dosage of 100 mg/kg (dissolved solution: saline, 5 days/week), abemaciclib treatment was given by oral gavage with a dosage of 100 mg/kg (dissolved solution: 0.5% CMC-Na, 5 days/week), or drug combinations in which each compound was administered at the same dose and scheduled as a single agent. […]
PDOX tumor tissue sections were boiled in 10 mM sodium citrate (pH 6.0), for antigen retrieval after deparaffinization. […] Slides were scanned at least three different representative areas at 20× magnification using BZ-X800 fluorescence microscope (KEYENCE).

[6] = tested on: Cdh1 binding to Pin1 WW and PPIase domains; assay: GST-Pin1 pull-down of HA-Cdh1 after sulfopin treatment; assay type: cell-based, human; conditions: MCF-7 cells expressing HA-Cdh1, sulfopin 3 days, 10 μM MG132 last 12 hrs
Description: GST pull-down was performed as described previously (Lee et al., Mol Cell 2011; 42:147-59). Briefly, cells were stably expressing indicated proteins and lysed in pull-down buffer (20 mM Tris pH 8.0, 150 mM NaCl, 1 mM EDTA pH 8.0, 0.5% Nonidet-P40). The cell extracts were pre-cleared by glutathione agarose beads and incubated with 1 μM GST or GST fusion proteins overnight at 4° C. Protein complexes were recovered on glutathione agarose beads for 2 hours at 4° C., washed four to six times with pull-down buffer and eluted by boiling in SDS-containing sample buffer. Bound proteins were resolved by SDS-PAGE.
To further define the molecular mechanism of Cdh1-mediated Pin1 degradation, the interaction of Pin1 and Cdh1 was examined using GST pull-down assays using GST-Pin1 point mutations. IB analysis of GST pull-down precipitates derived from 293T cells transfected with HA-Cdh1 and GST-Pin1 mutants as indicated for 36 hrs. The graphs were one representative experiment out of three independent experiments. […] FIG. 1K and FIG. 1L show the shift of Cdh1 binding from the WW− to the PPIase domain of Pin1 upon inhibition of PPIase activity. […] Bottom graphs quantification of IB analysis for bound HA-Cdh1. […]

MCF-7 cells = assay: Time-lapse single-cell tracking with APC-degron reporter; assay type: cell-based, human; conditions: single living cells tracked, asynchronous MCF-7
Description: MCF-7 cells were stably expressed with mCherry-Geminin (1-110) and a histone H2B-Turquoise. Cells were then plated 24 hours before starting the microscope acquisition. Pin1 inhibitors or CDK4/6 inhibitors were added in the medium and imaged using a Nikon Eclipse TE-2000 inverted microscope with a 10× Plan Apo objective and a Hammamatsu Orca ER camera, equipped with environmental chamber controlling temperature, atmosphere (5% CO2) and humidity. Images were acquired every 30 min using the MetaMorph Software. For each condition filmed, 4 different fields were selected.
p53Cinema single cell analysis package was used for semiautomatic tracking of individual cells in live cell imaging datasets as described previously (Reyes et al., Mol Cell 2018; 71:581-91 e5). Tracking data were then used to quantify intensity of fluorescent reporters from background subtracted images by averaging 10 pixels within the cell nucleus. Cells were tracked using only information about a constitutively expressed nuclear marker, such as H2B-Turquoise, and were thus blind to the dynamics of molecular players of interest, such as mCherry-Geminin. Only cells that remained within the field of view throughout the entire duration of the experiment were considered for downstream analyses. […] S/G2 durations were calculated by the time that cells spent in S/G2 phase after drugs were added.

Pin1 [7] = molecular target: T1, Pin1 (Homo sapiens, UniProt Q13526); assay: NMR titration of Cdh1 phosphopeptide with Pin1; assay type: binding; conditions: NMR chemical shift perturbation, pH 6.6, 25° C.
T1 sequence (Q13526 whole entry, the tested form may be a part): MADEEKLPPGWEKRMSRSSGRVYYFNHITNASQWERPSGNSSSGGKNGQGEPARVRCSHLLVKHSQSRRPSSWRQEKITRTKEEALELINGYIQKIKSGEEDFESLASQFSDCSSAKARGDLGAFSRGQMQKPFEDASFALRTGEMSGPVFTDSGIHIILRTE
Description: All NMR experiments were acquired on Bruker NEO 600 MHz spectrometer equipped with a TCI cryoprobe at 25° C. 0.1 mM ^13C, ^15N-enriched Pin1 sample dissolved in pH 6.6 buffer made-up of 20 mM Potassium Phosphate, 100 mM NaSO4 and 10% D2O was used to study peptide interaction. NMR assignments of Pin1 were taken from the BMRB database (accession number 27579) and confirmed using 3D-HNCA experiment. Synthetic peptides Cdh1-pS163 (comprised of Cdh1 residues 161-183 with phosphorylated Ser163 and isotope labeled Pro164, LR (pS)P(^13C, ^15N) […]) (SEQ ID NO: 27). were purchased from Pepmic. A systematic titration between Pin1 and phosphopeptide was performed by acquiring 2D-HSQC spectra. The absolute average chemical shift perturbation was calculated by using an equation, [(A8H2+ (A8N/5) 2)/2]½, available in software NMRFAM Sparky version 1.414.

Pin1 [8] = molecular target: T1, Pin1; assay: Proline isomerization study by 13C-HSQC NMR; assay type: biochemical
Source text: Commercially synthesized specific ^13C, ^15N-P164 labeled Cdh1 phosphopeptide was used to facilitate direct quantitative determination of the cis and trans proline populations. The strong ^13C-HSQC peaks originating from Pro164 can be easily distinguished from the weak peaks due to ~1% natural abundance ^13C present in the rest of the peptide. […] Based on the interpretation of the chemical shifts, the major peaks were assigned as trans isomer and the minor peaks were assigned as cis isomer (Schubert et al. J Biomol NMR 24, 149-154 (2002)). The proline resonance assignments were further confirmed using a 2D-^13C-HSQCTOCSY experiment while no attempts were made to stereospecifically assign proton resonances, thus the assignment of HB2 and HB3, HG2 and HG3, and HD2 and HD3 are interchangeable. 58 μM free peptide and its complex with a 4-fold molar excess of Pin1, dissolved in the above-mentioned NMR buffer were used to estimate the cis and trans isomer populations at 25° C.

Molecule: CC(C)C[C@@H](C=O)NC(=O)[C@H](CC(C)C)NC(=O)[C@H](CC(C)C)NC(=O)OCc1ccccc1 [MG132] (Cbz-Leu-Leu-Leu-aldehyde)
Pin1 inhibitor-induced Pin1 degradation (Pin1 in MDA-MB-231 cells): rescued

Molecule: CCN1CCN(Cc2ccc(Nc3ncc(F)c(-c4cc(F)c5nc(C)n(C(C)C)c5c4)n3)nc2)CC1 [abemaciclib]
median survival [1]: 31.5 days
median survival [2]: 25 days
median survival [3]: 31 days

Molecule: CC(C)C[C@H](NC(=O)[C@H](Cc1ccccc1)NC(=O)c1cnccn1)B(O)O [bortezomib]
Pin1 inhibitor-induced Pin1 degradation (Pin1 in MDA-MB-231 cells): rescued

Molecule: CC(=O)c1c(C)c2cnc(Nc3ccc(N4CCNCC4)cn3)nc2n(C2CCCC2)c1=O [palbociclib]
median survival [4]: 21 days

Molecule: CN(C)C(=O)c1cc2cnc(Nc3ccc(N4CCNCC4)cn3)nc2n1C1CCCC1 [ribociclib]
single agent activity in TNBC (TNBC): neither palbociclib nor ribociclib has activity in TNBC

Molecule: CC(C)(C)CN(C(=O)CCl)C1CCS(=O)(=O)C1 (centres unmarked) [sulfopin]
tumor growth [5]: limited single agent activity
median survival [1]: 27 days
median survival [2]: 25 days
median survival [3]: 22.5 days
median survival [4]: 21 days
binding mode of Cdh1 to Pin1 [6]: shift from binding to the WW domain to the PPIase domain
S/G2 duration (MCF-7 cells): strikingly prolonged S/G2 phases

binding to the Pin1 WW domain (Pin1 [7]): moderately strong affinity
cis-P164 isomer population (Pin1 [8]; 1:4 complex with Pin1, 25° C.): 14.2%
cis-P164 isomer population (Pin1 [8]; free peptide, 58 μM, 25° C.): 7%
Molecule: Cdh1-pS163: Cdh1 residues 161-183 with phosphorylated Ser163 and isotope labeled Pro164 (SEQ ID NO: 27) (LR[pS][Pro(13C,15N)]RKPTRKISKIPFKVLDAPE)
